Literature values as cited in US6579895B2, “Use of a celecoxib composition for fast pain relief” (Pharmacia Corporation, priority 2000, dated 2003).

How the values were obtained:
[1] = test system: post-surgical pain; settings: ibuprofen 400 mg; e.g. post-surgical pain
[2] = biological target: plasma albumin (Homo sapiens, UniProt P02768); settings: following oral administration
plasma albumin, sequence (P02768 25-609): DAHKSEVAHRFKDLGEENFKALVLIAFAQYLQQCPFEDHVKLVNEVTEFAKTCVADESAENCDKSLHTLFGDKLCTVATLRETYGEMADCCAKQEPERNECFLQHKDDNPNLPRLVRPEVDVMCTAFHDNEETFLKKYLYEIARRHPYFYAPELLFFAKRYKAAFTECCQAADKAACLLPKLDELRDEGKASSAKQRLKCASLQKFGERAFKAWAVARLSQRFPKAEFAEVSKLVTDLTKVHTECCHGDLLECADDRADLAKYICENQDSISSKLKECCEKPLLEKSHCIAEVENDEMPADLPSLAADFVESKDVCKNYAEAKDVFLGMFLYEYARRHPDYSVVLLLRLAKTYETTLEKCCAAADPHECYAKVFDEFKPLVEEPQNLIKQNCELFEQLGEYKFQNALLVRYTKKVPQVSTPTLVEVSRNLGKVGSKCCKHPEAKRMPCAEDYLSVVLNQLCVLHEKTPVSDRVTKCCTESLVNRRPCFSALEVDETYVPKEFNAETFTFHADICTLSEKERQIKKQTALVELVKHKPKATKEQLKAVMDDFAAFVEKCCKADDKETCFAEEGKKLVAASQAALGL

Row | SMILES | time after administration to an adequate level of suppression of pain [1] | binding to plasma albumin [2]
1 | CC(C)Cc1ccc(C(C)C(=O)O)cc1 (centres unmarked) [Ibuprofen, ibuprofen] | about 1 hour | 
2 | Cc1ccc(-c2cc(C(F)(F)F)nn2-c2ccc(S(N)(=O)=O)cc2)cc1 [celecoxib, 4-[5-(4-methylphenyl)-3-(trifluoromethyl)-1H-pyrazol-1-y1]benzenesulfonamide] |  | extensive binding
